The melting point is the temperature, or range, at which the solid turns liquid. As to `Clc1ccccc1C(c1ccccc1)(c1ccccc1)n1ccnn1` [Example 10, 1-(2-chlorotrityl)-1H-1,2,3-triazole], the melting point was 162 °C.

Source of the values: US20010011137A1, “Use of triphenylmethyl-1,2,3-triazoles” (priority 1996, published 2001).
